Test [1] has as its target Human recombinant DAO (Homo sapiens (Human), UniProt P19801). Description: Determination of selective inhibition of DAO (diamine oxidase) (Amplex Red, 1,4-diaminobutane substrate). The test is classed as biochemical. The note with it: 30 min pre-incubation at 37° C. From the text:
2. Determination of Selective Inhibition of DAO (Diamine Oxidase)
Test purpose: The following method is used to determine the selective inhibitory activity of the compound of the present invention on DAO.
• Human recombinant DAO (Recombinant Human ABP-1/DAO) was purchased from R&D, Cat. No. 8298-AO; • Amplex® Red Hydrogen PeroxidePeroxidase Assay Kit was purchased from Invitrogen, Cat. No. A22188; • 1,4-Diaminobutane dihydrochloride was purchased from Aladdin, Cat. No. D106194-25G. Test Method:
The test compound was dissolved in DMSO and diluted 5 times to a total of 6 concentrations. In a 384-well plate, 24 μL of human recombinant DAO (1 μg/mL) was added into each well. 1 μL of test compounds at different concentrations were added to each well containing human recombinant DAO, and the plate was incubated at 37° C. for 30 min. After incubating for 30 min, 25 μL of Amplex® Red Hydrogen Peroxide Peroxidase Assay Kit (containing 100 μM Amplex® Red and 0.2 U/ml HRP) containing 1 M 1,4-butanediamine dihydrochloride was added into the corresponding wells, and the plate was incubated in the dark at 37° C. for 30 min. After 30 min, PHERAstar FSX microplate reader of BMG LABTECH was used to read the fluorescence value (RFU) under excitation at 540 nm and emission at 580 nm. The graph was drawn using Graph Pad Prism 5 software to calculate the IC50 value.

The target of test [2] is human recombinant SSAO/VAP-1 (Homo sapiens (Human), UniProt Q16853). Description: Determination of inhibitory activity of human recombinant SSAO/VAP-1 (Amplex Red, benzylamine substrate). The test is classed as biochemical. The note with it: 30 min pre-incubation at room temperature; read-out: SSAO/VAP-1 (Human Recombinant Protein) IC50. From the text:
1. Determination of Inhibitory Activity of Human Recombinant SSAO/VAP-1
Test purpose: The following method is used to determine the inhibitory activity of the compounds in the examples of the present invention on human recombinant SSAO/VAP-1.
• Human recombinant SSAO/VAP-1 (VAP-1, human) was purchased from Sigma, Cat. No. SRP6241; • Amplex® Red Monoamine Oxidase Assay Kit was purchased from Invitrogen, Cat. No. A12214; • 384-well plate was purchased from Corning, Cat. No. 6005174; • Amplex® Red Hydrogen PeroxidePeroxidase Assay Kit was purchased from Invitrogen, Cat. No. A22188.
Benzylamine hydrochloride was purchased from Sigma, Cat. No. B5136-25G; • DMSO (Dimethyl Sulfoxide) was purchased from Sigma, Cat. No. D2650-100ML; Test Method:
The test compound was dissolved in DMSO and diluted 4 times to a total of 10 concentrations. In a 384-well plate, 25 μL of human recombinant SSAO/VAP-1 (1.6 μg/mL) was added into each well. 100 nL of test compounds at different concentrations were added to each well containing human recombinant SSAO/VAP-1, and the plate was incubated at room temperature for 30 min. After incubating for 30 min, 25 μL of Amplex® Red Monoamine Oxidase Assay Kit (a reaction mixture containing 200 μM Amplex Red reagent, 1 U/mL HRP and 1 mM benzylamine hydrochloride) was added into the corresponding wells, and the plate was incubated at room temperature in the dark for 60 min. After 60 min, PerkinElmer's Envision was used to read the fluorescence value (RFU) under excitation at 530-560 nm and emission at 590 nm. The graph was drawn using Graph Pad Prism 5 software to calculate the IC50 value.

Structures are written as SMILES. Where a name gives a salt, the structure may show the parent alone.

Chain of human recombinant SSAO/VAP-1 (Q16853 whole entry): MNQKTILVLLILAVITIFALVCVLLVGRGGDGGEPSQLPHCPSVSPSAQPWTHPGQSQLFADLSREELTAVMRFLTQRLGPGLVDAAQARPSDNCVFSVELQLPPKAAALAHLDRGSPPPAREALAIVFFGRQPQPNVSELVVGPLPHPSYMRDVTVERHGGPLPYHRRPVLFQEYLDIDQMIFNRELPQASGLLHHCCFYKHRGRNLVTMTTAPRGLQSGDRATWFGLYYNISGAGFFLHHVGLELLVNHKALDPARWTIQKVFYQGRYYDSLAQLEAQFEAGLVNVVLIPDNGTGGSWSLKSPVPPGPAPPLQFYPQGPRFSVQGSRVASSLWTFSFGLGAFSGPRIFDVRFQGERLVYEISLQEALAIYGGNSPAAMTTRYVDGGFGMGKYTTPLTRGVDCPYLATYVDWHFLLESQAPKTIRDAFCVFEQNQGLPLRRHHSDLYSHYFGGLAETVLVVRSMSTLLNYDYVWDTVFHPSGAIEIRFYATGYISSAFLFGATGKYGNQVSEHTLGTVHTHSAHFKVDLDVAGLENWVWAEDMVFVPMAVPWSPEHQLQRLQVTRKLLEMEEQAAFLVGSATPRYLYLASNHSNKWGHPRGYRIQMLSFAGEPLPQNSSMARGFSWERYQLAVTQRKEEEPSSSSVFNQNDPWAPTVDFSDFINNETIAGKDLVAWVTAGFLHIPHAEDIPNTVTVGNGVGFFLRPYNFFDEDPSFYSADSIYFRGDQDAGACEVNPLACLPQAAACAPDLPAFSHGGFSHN
Chain of Human recombinant DAO (P19801 20-751): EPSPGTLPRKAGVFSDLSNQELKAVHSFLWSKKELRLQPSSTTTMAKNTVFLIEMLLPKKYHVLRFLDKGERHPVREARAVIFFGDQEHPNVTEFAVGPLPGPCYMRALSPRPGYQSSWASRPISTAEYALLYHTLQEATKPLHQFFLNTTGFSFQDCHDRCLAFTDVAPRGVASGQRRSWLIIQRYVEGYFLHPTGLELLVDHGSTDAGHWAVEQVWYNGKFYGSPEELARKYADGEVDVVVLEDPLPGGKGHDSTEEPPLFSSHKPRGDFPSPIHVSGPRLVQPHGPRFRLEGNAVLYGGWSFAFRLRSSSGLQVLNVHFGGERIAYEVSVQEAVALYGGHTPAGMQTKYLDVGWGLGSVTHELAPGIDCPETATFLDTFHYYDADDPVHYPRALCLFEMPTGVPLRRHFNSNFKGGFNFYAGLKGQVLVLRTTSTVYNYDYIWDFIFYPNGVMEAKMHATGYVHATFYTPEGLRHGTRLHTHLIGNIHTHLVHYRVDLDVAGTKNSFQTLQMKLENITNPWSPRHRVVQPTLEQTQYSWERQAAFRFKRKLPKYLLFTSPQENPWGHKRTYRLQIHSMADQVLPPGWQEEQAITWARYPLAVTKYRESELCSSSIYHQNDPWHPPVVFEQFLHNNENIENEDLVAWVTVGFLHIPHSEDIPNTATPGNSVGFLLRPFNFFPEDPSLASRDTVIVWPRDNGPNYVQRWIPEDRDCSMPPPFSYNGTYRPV

Take `CC(C)NC(=O)CN1CCc2cc(OC/C(=C/F)CN)ccc2C1=O` [Example 9, 2-[6-[(E)-2-(aminomethyl)-3-fluoro-allyloxy]-1-oxo-3,4-dihydroisoquinolin-2-yl]-N-isopropyl-acetamide hydrochloride]: the IC50 in test [1] is over 1000 nM.

In the case of `NC/C(=C\F)COc1ccc2c(c1)CCN(CC(=O)NC1CC(F)(F)C1)C2=O` [Example 19, 2-[6-[(E)-2-(aminomethyl)-3-fluoro-allyloxy]-1-oxo-3,4-dihydroisoquinolin-2-yl]-N-(3,3-difluorocyclobutyl)-acetamide hydrochloride], the results for the IC50 in test [1] and in test [2] were over 1000 nM and 4.01 nM, respectively. For the compound `COCCNC(=O)CN1CCc2cc(OC/C(=C/F)CN)ccc2C1=O` [Example 22, 2-[6-[(E)-2-(aminomethyl)-3-fluoro-allyloxy]-1-oxo-3,4-dihydroisoquinolin-2-yl]-N-(2-methoxyethyl)acetamide hydrochloride], the IC50 in test [1] is over 100 nM. For the compound `CCOP(=O)(CCN1CCc2cc(OC/C(=C/F)CN)ccc2C1=O)OCC` [Example 24, 6-[(E)-2-(aminomethyl)-3-fluoro-allyloxy]-2-(2-diethoxyphosphorylethyl)-3,4-dihydroisoquinoline-1-one hydrochloride], the IC50 in test [1] is over 100 nM; in test [2], 3.67 nM. For `CNC(=O)CN1CCc2cc(OC/C(=C/F)CN)ccc2C1=O` [Example 3, 2-[6-[(E)-2-(aminomethyl)-3-fluoro-allyloxy]-1-oxo-3,4-dihydroisoquinolin-2-yl]-N-methyl-acetamide hydrochloride], the IC50 in test [1] is over 100 nM. On to `CS(=O)(=O)CCNC(=O)CN1CCc2cc(OC/C(=C/F)CN)ccc2C1=O` [Example 18, 2-[6-[(E)-2-(aminomethyl)-3-fluoro-allyloxy]-1-oxo-3,4-dihydroisoquinolin-2-yl]-N-(2-methanesulfonylethyl)acetamide hydrochloride], for which the results for the IC50 in test [1] and in test [2] were over 1000 nM and 8.66 nM, respectively. For `CS(=O)(=O)CCN1CCc2cc(OC/C(=C/F)CN)ccc2C1=O` [Example 25, 6-[(E)-2-(aminomethyl)-3-fluoro-allyloxy]-2-(2-methylsulfonylethyl)-3,4-dihydroisoquinoline-1-one hydrochloride], the IC50 in test [1] was over 100 nM; in test [2], 3.38 nM.

For `CCNC(=O)CN1CCc2cc(OC/C(=C/F)CN)ccc2C1=O` [Example 5, 2-[6-[(E)-2-(aminomethyl)-3-fluoro-allyloxy]-1-oxo-3,4-dihydroisoquinolin-2-yl]-N-ethyl-acetamide hydrochloride], the IC50 in test [1] is over 100 nM. Still for that read-out and setting: the same measure for `NC/C(=C\F)COc1ccc2c(c1)CCN(CC(=O)NC1CC1)C2=O` [Example 16, 2-[6-[(E)-2-(aminomethyl)-3-fluoro-allyloxy]-1-oxo-3,4-dihydroisoquinolin-2-yl]-N-cyclopropyl-acetamide hydrochloride]: over 100 nM.

Regarding `NC/C(=C\F)COc1ccc2c(c1)CCN(CC(=O)N1CCCC1)C2=O` [Example 20, 6-[(E)-2-(aminomethyl)-3-fluoro-allyloxy]-2-(2-oxo-2-pyrrolidin-1-yl-ethyl)-3,4-dihydroisoquinoline-1-one hydrochloride], in test [1], the IC50 was over 100 nM.

For the compound `CC(C)CNC(=O)CN1CCc2cc(OC/C(=C/F)CN)ccc2C1=O` [Example 11, 2-[6-[(E)-2-(aminomethyl)-3-fluoro-allyloxy]-1-oxo-3,4-dihydroisoquinolin-2-yl]-N-isobutyl-acetamide hydrochloride], the IC50 in test [1] is over 100 nM. Consider `CCCNC(=O)CN1CCc2cc(OC/C(=C/F)CN)ccc2C1=O` [Example 21, 2-[6-[(E)-2-(aminomethyl)-3-fluoro-allyloxy]-1-oxo-3,4-dihydroisoquinolin-2-yl]-N-propyl-acetamide hydrochloride], for which the IC50 in test [1] was over 1000 nM; in test [2], 11.8 nM. For `CN(C)C(=O)CN1CCc2cc(OC/C(=C/F)CN)ccc2C1=O` [Example 7, 2-[6-[(E)-2-(aminomethyl)-3-fluoro-allyloxy]-1-oxo-3,4-dihydroisoquinolin-2-yl]-N, N-dimethyl-acetamide hydrochloride], in that order: over 1000 nM and 11.1 nM.

Consider `CCNC(=O)CN1CCc2cc(OC/C(=C\F)CN)ccc2C1=O` [Example 6, 2-[6-[(Z)-2-(aminomethyl)-3-fluoro-allyloxy]-1-oxo-3,4-dihydroisoquinolin-2-yl]-N-ethyl-acetamide hydrochloride], for which the IC50 in test [2] is 4.12 nM. Consider `CNC(=O)CN1CCc2cc(OC/C(=C\F)CN)ccc2C1=O` [Example 4, 2-[6-[(Z)-2-(aminomethyl)-3-fluoro-allyloxy]-1-oxo-3,4-dihydroisoquinolin-2-yl]-N-methyl-acetamide hydrochloride], for which the IC50 in test [2] turned out to be 3.7 nM. Turning to `CN(C)C(=O)CN1CCc2cc(OC/C(=C\F)CN)ccc2C1=O` [Example 8, 2-[6-[(Z)-2-(aminomethyl)-3-fluoro-allyloxy]-1-oxo-3,4-dihydroisoquinolin-2-yl]-N,N-dimethyl-acetamide hydrochloride], the IC50 in test [2] stood at 1 nM. Consider `CC(C)(C)NC(=O)CN1CCc2cc(OC/C(=C/F)CN)ccc2C1=O` [Example 15, 2-[6-[(E)-2-(aminomethyl)-3-fluoro-allyloxy]-1-oxo-3,4-dihydroisoquinolin-2-yl]-N-tert-butyl-acetamide hydrochloride], for which the IC50 in test [1] was over 100 nM. With `NC/C(=C\F)COc1ccc2c(c1)CCN(CC(=O)NC1CCC1)C2=O` [Example 17, 2-[6-[(E)-2-(aminomethyl)-3-fluoro-allyloxy]-1-oxo-3,4-dihydroisoquinolin-2-yl]-N-cyclobutyl-acetamide hydrochloride], the IC50 in test [1] was over 100 nM. Same read-out and setting: as for `NC/C(=C\F)COc1ccc2c(c1)CCN(CC(=O)NCC(F)(F)F)C2=O` [Example 13, 2-[6-[(E)-2-(aminomethyl)-3-fluoro-allyloxy]-1-oxo-3,4-dihydroisoquinolin-2-yl]-N-(2,2,2-trifluoroethyl)acetamide hydrochloride], the figure is over 100 nM.

Source of the values: patent US12258317B2, “Isoquinolinone compound for inhibiting ssao/vap-1, and use thereof” (SUNSHINE LAKE PHARMA CO., LTD., priority 2019, dated 2025).
